Data: publication PMC9780942, “Antimicrobial Activity and Immunomodulatory Properties of Acidocin A, the Pediocin-like Bacteriocin with the Non-Canonical Structure” (Membranes, 2022)
Positions of bridges follow the written chain, without caps; N, C: chain ends. No end group written: not given here.

How the values were obtained:
[1] = system: E. coli ML-35p cytoplasmic membrane; assay: Cytoplasmic membrane permeability assay with ONPG; assay type: cell-based; settings: PBS pH 7.4 with NaCl, 35 °C, absorbance 405 nm, three independent experiments
Experimental: The ability of the peptides to disrupt the integrity of bacterial membranes was assessed using chromogenic substrates that are unable to enter the intact cell. For these assays, E. coli strain ML-35p was chosen that constitutively expresses β-lactamase (secreted into the periplasmic space), β-galactosidase (that is active in cytoplasm), and lacks lactose permease. Nitrocefin, which is a substrate for lactamase, served as an indicator of increased outer membrane permeability. o-Nitrophenyl-β-D-galactopyranoside (ONPG), a substrate for […], was used to assess the integrity of the cytoplasmic membrane. The bacterial cultures were grown to stationary phase in 3% TSB medium at 37 °C overnight. The cells were washed three times with cold 10 mM phosphate-buffered saline (PBS), pH 7.4 ([…], 2.7 mM KCl, 10 mM Na2HPO4, 1.76 mM KH2PO4), and diluted to the concentration of 3.3 × 10^7 CFU/mL with 10 mM PBS (pH 7.4), containing increased concentration of NaCl (1.2%, or 205 mM) and dissolved nitrocefin (Merck-Millipore, Burlington, MA, USA) or ONPG (AppliChem GmbH, Darmstadt, Germany). […] The plate was incubated at 35 °C, 500 rpm, and the absorbance of the hydrolysis products of ONPG or nitrocefin was measured spectrophotometrically at regular intervals at 405 nm or 492 nm, respectively, using AF2200 microplate reader (Eppendorf, Hamburg, Germany). […]

[2] = Circular dichroism spectroscopy, secondary structure estimation; assay type: physicochemical; settings: calculated from previously published CD spectra

TYYGNGVSCNKKGCSVDWGKAISIIGNNSAANLATGGAAGWKS (disulfide 9-14) [Avicin A]
Effect on cytoplasmic membrane integrity (ONPG hydrolysis kinetics) [1]: melittin >> acidocin A ≈ pediocin box mutants > peptides without a disulfide bond > avicin A >> AviA(T) | Random ([2]; Aqueous solution): 39.3% | α-Helix ([2]; Aqueous solution): 5.8% | β-Sheet ([2]; Aqueous solution): 32.8% | β-Turn ([2]; Aqueous solution): 22.1% | Random ([2]; DPC micelles): 27.8% | α-Helix ([2]; DPC micelles): 19.4% | β-Sheet ([2]; DPC micelles): 28.6% | β-Turn ([2]; DPC micelles): 21.6% | Random ([2]; SDS micelles): 30.4% | α-Helix ([2]; SDS micelles): 19.7% | β-Sheet ([2]; SDS micelles): 29.3% | β-Turn ([2]; SDS micelles): 23.1%
